The values that follow are results of earlier work, collected in paper PMC7135267, “Modified linear regression predicts drug-target interactions accurately” (PLoS ONE, 2020).

This data set relates to CFTR. Conditions: rats, caffeine intake.

Consider `Cn1c(=O)c2c(ncn2C)n(C)c1=O` [D00528, Caffeine], for which the “CFTR chloride secretion in intestine” value is on record as “increased”.
